Laboratory results as given in US20150065470A1, “Steroid Sulfatase Inhibitor Regimen for the Treatment of Endometriosis” (priority 2012, published 2015).

How the values were obtained:
STS [1] = molecular target: T1, STS (Homo sapiens, UniProt P08842); details: cited from earlier work
T1 sequence (P08842 22-583): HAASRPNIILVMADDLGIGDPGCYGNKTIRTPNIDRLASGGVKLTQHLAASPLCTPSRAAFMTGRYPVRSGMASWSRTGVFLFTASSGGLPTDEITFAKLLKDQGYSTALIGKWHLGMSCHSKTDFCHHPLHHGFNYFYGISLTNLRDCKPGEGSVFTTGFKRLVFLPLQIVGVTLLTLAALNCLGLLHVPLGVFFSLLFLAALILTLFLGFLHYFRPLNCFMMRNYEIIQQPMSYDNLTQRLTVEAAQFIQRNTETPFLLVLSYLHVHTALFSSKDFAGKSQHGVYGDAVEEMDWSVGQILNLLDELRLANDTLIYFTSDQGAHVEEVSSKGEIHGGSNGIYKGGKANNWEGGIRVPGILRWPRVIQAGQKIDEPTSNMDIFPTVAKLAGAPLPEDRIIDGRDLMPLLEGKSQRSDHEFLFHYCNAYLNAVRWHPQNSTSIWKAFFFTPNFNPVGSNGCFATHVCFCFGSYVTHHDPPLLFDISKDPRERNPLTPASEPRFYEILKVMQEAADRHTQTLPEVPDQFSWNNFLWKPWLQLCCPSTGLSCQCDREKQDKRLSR

STS [2] = molecular target: T1, STS; details: cited from earlier work; remark: listed apart in the source
[3] = molecular target: T2, Steroid Sulfatase in endometrium (Homo sapiens, UniProt P08842); test: STS activity in endometrium, Example 2 (LC-MS/MS); format: in vivo; details: E2MATE 4 mg weekly and/or NETA 10 mg daily for 4 weeks
T2 construct: from tissue; host or cells: endometrium (biopsies) of dosed women
T2 sequence (P08842 22-583): T1 sequence (P08842 22-583)
Experimental: (§1) STS activity was determined by spiking specimens with labelled E1-S and by measuring its conversion to E1 per gram protein under standardized incubation conditions using LC-MS/MS. Protein concentration was evaluated with a validated colorimetric assay (Bradford method).

STS activity in PBMCs = molecular target: T3, STS activity in PBMCs (Homo sapiens, UniProt P08842); test: STS activity in PBMCs, Example 2 (LC-MS/MS); format: in vivo; details: E2MATE 4 mg weekly and/or NETA 10 mg daily for 4 weeks
T3 construct: Pharmacodynamic properties were investigated by assessment of the STS activity in PBMCs; endogenous in cells; host or cells: peripheral blood mononuclear cells (PBMCs) of dosed women
T3 sequence (P08842 22-583): T1 sequence (P08842 22-583)
Experimental: as §1

[4] = Safety, tolerability and post-treatment menstruation cycles, Example 2; details: follow-up, ultrasound
Description: Menstruation cycle length was not influenced by the treatment. […] Sizes of right and left ovary differed slightly for each subject, but no clinically relevant changes were identified by the gynaecologists.

E2 and P4; T and D4A = test: Hormone profiles (E2, P4, T, D4A), Example 2; format: in vivo, human
Experimental: Hormone profiles were determined as described in Example 1.

Compound: NS(=O)(=O)Oc1ccc2c3c(c(=O)oc2c1)CCCCC3
- blocking STS activity in both eutopic and ectopic tissues (STS [1]): effective in blocking STS activity

Compound: C[C@]12CCC3c4ccc(OS(N)(=O)=O)cc4CCC3C1CCC2=O (stereo partly drawn) [EMATE, Estrone-3-o-sulfamate]
- STS inhibition (STS [2]): active STS inhibitors

Compound: C#C[C@]1(OC(C)=O)CC[C@H]2[C@@H]3CCC4=CC(=O)CC[C@@H]4[C@H]3CC[C@@]21C [NETA, norethindrone (norethisterone) acetate, reference compound]
- AVG [%] average inhibition of Steroid Sulfatase in endometrium (average effect over time (AUC)) [3]: 14.9 (27.0) %
- Emax [%] maximal inhibition of Steroid Sulfatase in endometrium [3]: 46.7 (42.8) %
- mean percentage inhibition of STS activity in PBMCs (STS activity in PBMCs; Day 4): 12%
- average inhibition of STS activity in PBMCs (STS activity in PBMCs): 4%
- ovarian size [4]: no apparent effect
- mean concentration-time profiles in E2 and P4 (E2 and P4; T and D4A; first cycle up to Day 29, normal increase on Day 43): suppressed
- mean concentration-time profiles for T and D4A (E2 and P4; T and D4A; multiple dose administration): No relevant differences
